IC50 data for 20 compounds are collected here from patent US20180237441A1, “Chemical Compounds” (GlaxoSmithKline Intellectual Property (No.2) Limited, priority 2015, published 2018).

One assay addresses T1, PERK (Homo sapiens, UniProt Q9NZJ5).
T1 sequence (Q9NZJ5 30-1116): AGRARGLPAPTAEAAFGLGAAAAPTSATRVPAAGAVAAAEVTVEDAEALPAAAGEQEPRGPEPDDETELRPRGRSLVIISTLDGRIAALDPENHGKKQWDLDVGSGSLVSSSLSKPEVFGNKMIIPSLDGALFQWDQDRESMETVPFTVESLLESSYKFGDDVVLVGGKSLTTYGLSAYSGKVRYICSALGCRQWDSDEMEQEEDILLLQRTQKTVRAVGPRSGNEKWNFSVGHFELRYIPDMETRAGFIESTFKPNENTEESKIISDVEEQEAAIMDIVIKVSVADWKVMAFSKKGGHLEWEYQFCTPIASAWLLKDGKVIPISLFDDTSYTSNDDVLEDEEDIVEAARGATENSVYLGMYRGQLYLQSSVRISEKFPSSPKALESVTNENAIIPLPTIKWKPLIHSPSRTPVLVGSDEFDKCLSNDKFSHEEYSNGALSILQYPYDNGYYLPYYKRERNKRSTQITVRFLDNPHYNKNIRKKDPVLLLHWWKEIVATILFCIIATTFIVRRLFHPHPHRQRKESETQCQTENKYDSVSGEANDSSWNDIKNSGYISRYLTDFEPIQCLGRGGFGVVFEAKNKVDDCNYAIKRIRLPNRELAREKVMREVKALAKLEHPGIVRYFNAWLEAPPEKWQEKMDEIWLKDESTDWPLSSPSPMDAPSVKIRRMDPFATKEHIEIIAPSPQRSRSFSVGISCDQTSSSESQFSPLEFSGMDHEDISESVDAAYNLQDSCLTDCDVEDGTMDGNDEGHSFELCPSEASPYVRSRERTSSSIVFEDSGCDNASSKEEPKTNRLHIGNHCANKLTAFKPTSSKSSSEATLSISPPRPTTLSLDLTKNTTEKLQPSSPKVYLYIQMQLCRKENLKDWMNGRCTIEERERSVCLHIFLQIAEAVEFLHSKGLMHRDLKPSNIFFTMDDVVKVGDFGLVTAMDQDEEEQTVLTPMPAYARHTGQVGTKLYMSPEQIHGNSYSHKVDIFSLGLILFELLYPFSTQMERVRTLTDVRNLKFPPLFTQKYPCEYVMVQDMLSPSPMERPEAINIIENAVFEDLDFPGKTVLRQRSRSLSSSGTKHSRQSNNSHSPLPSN
The experiment in a line: PERK enzyme assay (HTRF). In kind it is biochemical. The note with it: 500 μM ATP; at least one experimental run; read-out: PERK Enzyme (500 μM ATP) IC50. The method, then: Compounds of the invention were assayed for PERK enzyme inhibitory activity with modifications to previously reported conditions (Axten et al. J. Med. Chem., 2012, 55, 7193-7207). Briefly, various concentrations of compounds (maximum 1% DMSO) were dispensed into 384-well plates containing GST-PERK enzyme. After 30-60 minutes of compound pre-incubation, ATP and biotin-eIF2α were added and after 60 minutes the reaction was quenched. After 2 hrs, a fluorescence plate reader was used to measure inhibition and IC50s were calculated.
Enzyme Assay Protocol for PKR-Like Endoplasmic Reticulum Kinase (PERK)—HTRF —% Inhibition
Assay Buffer contains HEPES (pH7.5) 10 mM, CHAPS 2 mM, MgCl2 5 mM and DTT 1 mM in water
Detection Buffer contains HEPES (pH7.5) 10 mM and CHAPS 2 mM in water Assay Plate Preparation:
1. Enzyme Preparation: • 4× Enzyme solution was prepared immediately prior to adding to compound plates. • 3 nM of GST-PERK in Assay buffer. Final [PERK] in 10 μl assay volume=0.75 nM
2. Substrate Preparation: • 4× Substrate solution was prepared immediately prior to adding to compound plates. • 4× Substrate solution in assay buffer 2000 μM ATP and 160 nM Biotin-eIF2α • Final [ATP] in 10 μl assay volume=500 μM • Final [biotin-eIF2a] in 10 μl assay volume=40 nM.
3. Quench/Detection Solution: • 16 nM eIF2 Phospho-Antibody • 16 nM Eu anti-Rabbit IgG • 160 nM Streptavidin-APC • 60 mM EDTA • Final concentration in 10 μL assay volume: 4 nM eIF2 Phospho-Antibody, 4 nM Eu anti-Rabbit IgG 40 nM Streptavidin-APC
The activity of compounds in the PERK enzyme assay was determined at PERK Enzyme (500 μM ATP) IC50 (nM).
(In general: Time-resolved FRET reads energy transfer from a long-lived donor to a nearby acceptor.)
As to `Cn1cc(-c2ccc(N3CC(c4cc(F)ccc4F)N(Cc4ccccc4)C3=O)cc2F)c2c(N)ncnc21` (stereo not drawn) [Example 20, 1-(4-(4-amino-7-methyl-7H-pyrrolo[2,3-d]pyrimidin-5-yl)-3-fluorophenyl)-3-benzyl-4-(2,5-difluorophenyl)imidazolidin-2-one], the IC50 stood at 3640 nM.

The same assay, now with this note: PERK Enzyme (500 μM ATP) IC50; at least one experimental run; read-out: PERK Activity.
On to `CN1C(=O)N(c2ccc(-c3cn(C)c4ncnc(N)c34)c(F)c2)CC1c1cc(F)cc(F)c1` (single isomer, unassigned) [Example 101, 1-(4-(4-amino-7-methyl-7H-pyrrolo[2,3-d]pyrimidin-5-yl)-3-fluorophenyl)-4-(3,5-difluorophenyl)-3-methylimidazolidin-2-one], for which the IC50 was in the range of 100 to 1000 nM.

Regarding `Cc1cc(N2CC(c3cc(F)cc(F)c3)CC2=O)ccc1-c1cn(C)c2ncnc(N)c12` (stereo not drawn) [Example 5, 1-(4-(4-Amino-7-methyl-7H-pyrrolo[2,3-d]pyrimidin-5-yl)-3-methylphenyl)-4-(3,5-difluorophenyl)pyrrolidin-2-one], the IC50 is 100 to 1000 nM.

As to `Cc1nc(N)c2c(-c3ccc(N4CC(c5ccc(Cl)nc5)N(C)C4=O)cc3F)cn(C)c2n1` (single isomer, unassigned) [Example 136, 1-(4-(4-amino-2,7-dimethyl-7H-pyrrolo[2,3-d]pyrimidin-5-yl)-3-fluorophenyl)-4-(6-chloropyridin-3-yl)-3-methylimidazolidin-2-one], the IC50 was in the range of 100 to 1000 nM.

Regarding `CN1C(=O)N(c2ccc(-c3cn(C4CC4)c4ncnc(N)c34)c(F)c2)CC1c1ccccc1` (stereo not drawn) [Example 149, 1-(4-(4-amino-7-cyclopropyl-7H-pyrrolo[2,3-d]pyrimidin-5-yl)-3-fluorophenyl)-3-methyl-4-phenylimidazolidin-2-one], the IC50 was less than 100 nM.

Take `Cc1nc(N)c2c(-c3ccc(N4CC(c5ccc(F)cc5F)N(C)C4=O)cc3F)c(C)n(C)c2n1` (single isomer, unassigned) [Example 10, 1-(4-(4-amino-2,6,7-trimethyl-7H-pyrrolo[2,3-d]pyrimidin-5-yl)-3-fluorophenyl)-4-(2,4-difluorophenyl)-3-methylimidazolidin-2-one]: the IC50 was greater than 1000 nM.

`CN1C(=O)N(c2ccc(-c3cn(C)c4ncnc(N)c34)c(F)c2)CC1c1cccc(F)c1F` (single isomer, unassigned) [Example 77, 1-(4-(4-amino-7-methyl-7H-pyrrolo[2,3-d]pyrimidin-5-yl)-3-fluorophenyl)-4-(2,3-difluorophenyl)-3-methylimidazolidin-2-one]: the IC50 is less than 100 nM.

Consider `CCN1C(=O)N(c2ccc(-c3cn(C)c4ncnc(N)c34)c(F)c2)CC1c1cc(F)cc(F)c1` (single isomer, unassigned) [Example 171, 1-(4-(4-amino-7-methyl-7H-pyrrolo[2,3-d]pyrimidin-5-yl)-3-fluorophenyl)-4-(3,5-difluorophenyl)-3-ethylimidazolidin-2-one], for which the IC50 is less than 100 nM.

`Cc1nc(N)c2c(-c3ccc(N4CC(c5c(F)ccc(F)c5F)N(C)C4=O)cc3F)cn(C)c2n1` (stereo not drawn) [Example 72, 1-(4-(4-amino-2,7-dimethyl-7H-pyrrolo[2,3-d]pyrimidin-5-yl)-3-fluorophenyl)-3-methyl-4-(2,3,6-trifluorophenyl)imidazolidin-2-one]: the IC50 lay within 100 to 1000 nM.

Turning to `Cn1cc(-c2ccc(N3CC(c4cc(F)ccc4F)NC3=O)cc2F)c2c(N)ncnc21` (stereo not drawn) [Example 21, 1-(4-(4-amino-7-methyl-7H-pyrrolo[2,3-d]pyrimidin-5-yl)-3-fluorophenyl)-4-(2,5-difluorophenyl)imidazolidin-2-one], the IC50 is 100 to 1000 nM.

Consider `Cn1cc(-c2ccc(N3CC(c4cc(F)ccc4F)N(Cc4ccccc4)C3=O)cc2F)c2c(N)ncnc21` (stereo not drawn) [Example 20, 1-(4-(4-amino-7-methyl-7H-pyrrolo[2,3-d]pyrimidin-5-yl)-3-fluorophenyl)-3-benzyl-4-(2,5-difluorophenyl)imidazolidin-2-one], for which the IC50 is greater than 1000 nM.

`CN1C(=O)N(c2ccc(-c3cn(C)c4ncnc(N)c34)c(Cl)c2)CC1c1cc(F)cc(F)c1` (stereo not drawn) [Example 121, 1-(4-(4-amino-7-methyl-7H-pyrrolo[2,3-d]pyrimidin-5-yl)-3-chlorophenyl)-4-(3,5-difluorophenyl)-3-methylimidazolidin-2-one]: the IC50 was less than 100 nM.

For the compound `CCN1C(=O)N(c2ccc(-c3cn(C)c4nc(C)nc(N)c34)c(F)c2)CC1c1cc(F)ccc1F` (single isomer, unassigned) [Example 54, 1-(4-(4-amino-2,7-dimethyl-7H-pyrrolo[2,3-d]pyrimidin-5-yl)-3-fluorophenyl)-4-(2,5-difluorophenyl)-3-ethylimidazolidin-2-one], the IC50 is less than 100 nM.

Take `Cn1cc(-c2ccc(N3CC(c4cccc(Cl)c4F)CC3=O)cc2F)c2c(N)ncnc21` (stereo not drawn) [Example 35, 1-(4-(4-amino-7-methyl-7H-pyrrolo[2,3-d]pyrimidin-5-yl)-3-fluorophenyl)-4-(3-chloro-2-fluorophenyl)pyrrolidin-2-one]: the IC50 lay in the range of 100 to 1000 nM.

Turning to `CN1C(=O)N(c2ccc(-c3cn(C)c4ncnc(N)c34)c(F)c2)CC1c1cc(Cl)ccc1F` (stereo not drawn) [Example 53, 1-(4-(4-amino-7-methyl-7H-pyrrolo[2,3-d]pyrimidin-5-yl)-3-fluorophenyl)-4-(5-chloro-2-fluorophenyl)-3-methylimidazolidin-2-one], the IC50 is 100 to 1000 nM.

As for `CN1C(=O)N(c2ccc(-c3cn(C4CC4)c4ncnc(N)c34)c(Cl)c2)CC1c1cc(F)cc(F)c1` (single isomer, unassigned) [Example 130, 1-(4-(4-amino-7-cyclopropyl-7H-pyrrolo[2,3-d]pyrimidin-5-yl)-3-chlorophenyl)-4-(3,5-difluorophenyl)-3-methylimidazolidin-2-one], the IC50 was less than 100 nM.

As for `Cn1cc(-c2ccc(N3CC(c4cc(F)cc(F)c4)CC3=O)cc2)c2c(N)ncnc21` (stereo not drawn) [Example 29, 1-(4-(4-amino-7-methyl-7H-pyrrolo[2,3-d]pyrimidin-5-yl)phenyl)-4-(3,5-difluorophenyl)pyrrolidin-2-one], the IC50 fell in the range of 100 to 1000 nM.

Turning to `CCN1C(=O)N(c2ccc(-c3cn(C4CC4)c4ncnc(N)c34)c(F)c2)CC1c1ccc(F)cc1F` (stereo not drawn) [Example 107, 1-(4-(4-amino-7-cyclopropyl-7H-pyrrolo[2,3-d]pyrimidin-5-yl)-3-fluorophenyl)-4-(2,4-difluorophenyl)-3-ethylimidazolidin-2-one], the IC50 is less than 100 nM.

As for `CN1C(=O)N(c2ccc(-c3cn(C4CC4)c4ncnc(N)c34)c(Cl)c2)CC1c1cc(F)cc(F)c1` (single isomer, unassigned) [Example 129, 1-(4-(4-amino-7-cyclopropyl-7H-pyrrolo[2,3-d]pyrimidin-5-yl)-3-chlorophenyl)-4-(3,5-difluorophenyl)-3-methylimidazolidin-2-one], the IC50 was less than 100 nM.

As to `CN1C(=O)N(c2ccc(-c3cn(C)c4ncnc(N)c34)cn2)CC1c1cc(F)ccc1F` (stereo not drawn) [Example 40, 1-(5-(4-amino-7-methyl-7H-pyrrolo[2,3-d]pyrimidin-5-yl)pyridin-2-yl)-4-(2,5-difluorophenyl)-3-methylimidazolidin-2-one], the IC50 was 100 to 1000 nM.

Turning to `CN1C(=O)N(c2ccc(-c3cn(C4CC4)c4ncnc(N)c34)c(F)c2)CC1c1cc(F)cc(F)c1` (stereo not drawn) [Example 176, 1-(4-(4-amino-7-cyclopropyl-7H-pvrrolo[2,3-d]pyrimidin-5-yl)-3-fluorophenyl)-4-(3,5-difluorophenyl)-3-methylimidazolidin-2-one], the IC50 is less than 100 nM.
